These results are taken from patent publication US9409905B2, “Antibacterial compounds and methods for use” (PTC THERAPEUTICS, INC., priority 2011, dated 2016).

In one assay the test system is E. coli ELZ4251. As to the kind of experiment: Antibacterial activity, MIC, multi-drug resistant clinical isolate (Table 3). It counts as cell-based. The note with it: Escherichia coli. The procedure, abridged:
(§1)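 Compounds were serially diluted in broth microdilution format and growth was scored visually; the MIC is the lowest concentration at which no macroscopically visible growth occurred, expressed in μg/mL.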

The subject of a further assay is E. coli ELZ4000. Described as above. In kind it is cell-based. The note with it: Escherichia coli, ELZ4000, read-out: MIC ELZ4000. Summed up:
as §1

Assay [1] concerns Staphylococcus aureus (S. aureus) 29213. As to the kind of experiment: Antibacterial activity, microbroth dilution MIC (Table 1). It counts as cell-based. The note with it: microbroth dilution, Gram-positive S. aureus 29213, read-out: MIC, 29213. The procedure, abridged:
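In a microbroth dilution test, the minimum inhibitory concentration was defined as the lowest compound level preventing growth seen by eye, and was given in μg/mL.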

The subject of assay [2] is Escherichia coli (E. coli) BAS849. Described as above. In kind it is cell-based. The note with it: microbroth dilution, super sensitive Gram-negative E. coli BAS849, read-out: MIC, BAS849. Summed up:
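Growth inhibition by microbroth dilution. MIC = lowest μg/mL with no visible growth. Strain 25922 is the control Gram-negative; BAS849 is hypersensitive.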
(In general: Dilution methods test growth across graded concentrations, often in twofold steps.)

Assay [3] relates to Haemophilus influenzae (H. influenzae) 49247. The experiment in a line: Antibacterial activity, MIC (Table 6). In kind it is cell-based. The procedure, abridged:
(§2)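 Read-out: absence of macroscopically visible growth. The lowest inhibiting concentration from the microbroth dilution series is reported as MIC in μg/mL.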

The test system of assay [4] is Pseudomonas aeruginosa (P. aeruginosa) 27853. As to the kind of experiment: Antibacterial activity, MIC (Table 5). It counts as cell-based. To be noted: P. aeruginosa 27853, read-out: MIC, 27853. The procedure, abridged:
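Values are MICs in μg/mL, read as the lowest concentration at which no growth is visible by eye. They were determined by a microbroth dilution method.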

For assay [5], the system named is Acinetobacter baumannii (A. baumannii) BAA747. As to the kind of experiment: Antibacterial activity, MIC (Table 4). It counts as cell-based. To be noted: A. baumannii BAA747, read-out: MIC, BAA747. The procedure, abridged: (§3)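 Values are MICs in μg/mL, read as the lowest compound concentration at which no growth is visible by eye. They come from a microbroth dilution method.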

The test system of assay [6] is Klebsiella pneumoniae (K. pneumoniae) 35657. As to the kind of experiment: Antibacterial activity, MIC (Table 4). It counts as cell-based. To be noted: K. pneumoniae 35657, read-out: MIC, 35657. The procedure, abridged:
as §3

For the next assay, the system named is E. coli LZ3111. As to the kind of experiment: Antibacterial activity, MIC, quinolone resistant strain (Table 2). In kind it is cell-based. To be noted: Escherichia coli, LZ3111, read-out: MIC LZ3111. Summed up: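 MIC values (μg/mL) came from a microbroth dilution assay, scored as the lowest drug concentration at which no growth was visible by eye.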
The subject of assay [7] is Moraxella catarrhalis (M. catarrhalis) 25238. As to the kind of experiment: Antibacterial activity, MIC (Table 7). It counts as cell-based. Summed up: as §2
Assay [8] deals with Neisseria meningitidis (N. meningitidis) 13090. The experiment in a line: Antibacterial activity, MIC (Table 8). It counts as cell-based. Summed up:
as §2

The next assay concerns E. coli 25922. As to the kind of experiment: Antibacterial activity, microbroth dilution MIC (Table 1). In kind it is cell-based, Escherichia coli. The note with it: Escherichia coli; microbroth dilution; control Gram-negative E. coli 25922 strain; read-out: MIC, 25922. The procedure, abridged: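 Microbroth dilution was used. MIC, in μg/mL, is the lowest drug concentration preventing macroscopically visible growth under the test conditions.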

For a further assay, the system named is K. pneumoniae MXX1232. The experiment in a line: Antibacterial activity, MIC, resistant strain (Table 4). It counts as cell-based. The note with it: Klebsiella pneumoniae, MXX1232; resistant K. pneumoniae MMX1232, multi-drug resistant clinical isolate; read-out: MIC, MMX1232. Summed up:
as §3

For another assay, the system named is A. baumannii MXX2240. The description is as above. To be noted: Acinetobacter baumannii, MXX2240; resistant A. baumannii MMX2240, multi-drug resistant clinical isolate; read-out: MIC, MMX2240. In kind it is cell-based. The procedure, abridged:
as §3

≈ marks a conversion by molar mass, not a printed value.

`CCc1c(-c2ccc3c(c2)cc(CN2CCC(N4CCCCC4)CC2)n3C)[nH]c(=O)c(C(=O)O)c1O` [Cpd 251, 6-(2-(1,4′-bipiperidin-1′-ylmethyl)-1-methyl-1H-indol-5-yl)-5-ethyl-4-hydroxy-2-oxo-1,2-dihydropyridine-3-carboxylic acid]: the MIC with E. coli ELZ4251 is 12.5 to 150 µg/mL (≈ 25.4 to 304 µM); in the assay on E. coli ELZ4000, 12.5 to 150 µg/mL (≈ 25.4 to 304 µM); in [1], 3.5 to 12.5 µg/mL (≈ 7.1 to 25.4 µM); in [2], < 1 µg/mL; in [3], 1 to 3.5 µg/mL (≈ 2.03 to 7.1 µM); in [4], 12.5 to 150 µg/mL (≈ 25.4 to 304 µM). In addition, the MIC is 3.5 to 12.5 µg/mL (≈ 7.1 to 25.4 µM) in assay [5]; 1 to 3.5 µg/mL (≈ 2.03 to 7.1 µM) in assay [6]; 3.5 to 12.5 µg/mL (≈ 7.1 to 25.4 µM) in the assay with E. coli LZ3111; < 1 µg/mL in assay [7]; < 1 µg/mL in assay [8]; 1 to 3.5 µg/mL (≈ 2.03 to 7.1 µM) with E. coli 25922. For the same compound, the MIC in the assay on K. pneumoniae MXX1232 and in the assay on A. baumannii MXX2240 was 12.5 to 150 µg/mL (≈ 25.4 to 304 µM) each time.
On to `CCc1c(-c2ccc3c(c2)cc(CN2CCC(N)CC2)n3C)[nH]c(=O)c(C(=O)O)c1O` [Cpd 252, 6-(2-((4-aminopiperidin-1-yl)methyl)-1-methyl-1H-indol-5-yl)-5-ethyl-4-hydroxy-2-oxo-1,2-dihydropyridine-3-carboxylic acid], for which the MIC was 12.5 to 150 µg/mL (≈ 29.4 to 353 µM) against E. coli ELZ4251; 12.5 to 150 µg/mL (≈ 29.4 to 353 µM) with E. coli ELZ4000; 12.5 to 150 µg/mL (≈ 29.4 to 353 µM) in assay [1]; < 1 µg/mL in assay [2]; 1 to 3.5 µg/mL (≈ 2.36 to 8.24 µM) in assay [3]; 3.5 to 12.5 µg/mL (≈ 8.24 to 29.4 µM) in [4]. In addition, the MIC in assay [5] was in the range of 12.5 to 150 µg/mL (≈ 29.4 to 353 µM); in assay [6], 1 to 3.5 µg/mL (≈ 2.36 to 8.24 µM); in the assay with E. coli LZ3111, 1 to 3.5 µg/mL (≈ 2.36 to 8.24 µM); in [7], 3.5 to 12.5 µg/mL (≈ 8.24 to 29.4 µM); in assay [8], 1 to 3.5 µg/mL (≈ 2.36 to 8.24 µM); in the assay with E. coli 25922 it was 1 to 3.5 µg/mL (≈ 2.36 to 8.24 µM). Moreover, the MIC with K. pneumoniae MXX1232 and with A. baumannii MXX2240 was 12.5 to 150 µg/mL (≈ 29.4 to 353 µM) throughout.
For the compound `CCc1c(-c2ccc3c(c2)cc(CN2CCC[C@H](N)C2)n3C)[nH]c(=O)c(C(=O)O)c1O` [Cpd 253, (S)-6-(2-((3-aminopiperidin-1-yl)methyl)-1-methyl-1H-indol-5-yl)-5-ethyl-4-hydroxy-2-oxo-1,2-dihydropyridine-3-carboxylic acid], the MIC was 12.5 to 150 µg/mL (≈ 29.4 to 353 µM) in the assay on E. coli ELZ4251; 12.5 to 150 µg/mL (≈ 29.4 to 353 µM) with E. coli ELZ4000; 12.5 to 150 µg/mL (≈ 29.4 to 353 µM) in [1]; < 1 µg/mL in assay [2]; 3.5 to 12.5 µg/mL (≈ 8.24 to 29.4 µM) in assay [3]; 12.5 to 150 µg/mL (≈ 29.4 to 353 µM) in [4]. In addition, the MIC in assay [5] fell in the range of 12.5 to 150 µg/mL (≈ 29.4 to 353 µM); in assay [6] it was 1 to 3.5 µg/mL (≈ 2.36 to 8.24 µM); in the assay on E. coli LZ3111, 3.5 to 12.5 µg/mL (≈ 8.24 to 29.4 µM); in assay [7] it was 3.5 to 12.5 µg/mL (≈ 8.24 to 29.4 µM); in [8], 1 to 3.5 µg/mL (≈ 2.36 to 8.24 µM); with E. coli 25922 it was 1 to 3.5 µg/mL (≈ 2.36 to 8.24 µM). Moreover, the MIC with K. pneumoniae MXX1232 and with A. baumannii MXX2240 was 12.5 to 150 µg/mL (≈ 29.4 to 353 µM) throughout.
As for `CCc1c(-c2ccc3c(c2)cc(CN2CCC(NC)CC2)n3C)[nH]c(=O)c(C(=O)O)c1O` [Cpd 256, 5-ethyl-4-hydroxy-6-(1-methyl-2-((4-(methylamino)piperidin-1-yl)methyl)-1H-indol-5-yl)-2-oxo-1,2-dihydropyridine-3-carboxylic acid], the MIC in the assay on E. coli ELZ4251 is 12.5 to 150 µg/mL (≈ 28.5 to 342 µM); with E. coli ELZ4000 it was 12.5 to 150 µg/mL (≈ 28.5 to 342 µM); in assay [1], 3.5 to 12.5 µg/mL (≈ 7.98 to 28.5 µM); in assay [2], < 1 µg/mL; in assay [3], 1 to 3.5 µg/mL (≈ 2.28 to 7.98 µM); in [4], 3.5 to 12.5 µg/mL (≈ 7.98 to 28.5 µM). The MIC lay within 12.5 to 150 µg/mL (≈ 28.5 to 342 µM) in [5]; 1 to 3.5 µg/mL (≈ 2.28 to 7.98 µM) in assay [6]; 1 to 3.5 µg/mL (≈ 2.28 to 7.98 µM) in the assay on E. coli LZ3111; 1 to 3.5 µg/mL (≈ 2.28 to 7.98 µM) in [7]; 1 to 3.5 µg/mL (≈ 2.28 to 7.98 µM) in [8]; 1 to 3.5 µg/mL (≈ 2.28 to 7.98 µM) with E. coli 25922. Also, the MIC in the assay on K. pneumoniae MXX1232 and with A. baumannii MXX2240 was 12.5 to 150 µg/mL (≈ 28.5 to 342 µM) throughout.
As to `CCc1c(-c2ccc3c(c2)cc(CN2CCC[C@H](NC)C2)n3C)[nH]c(=O)c(C(=O)O)c1O` [Cpd 257, (S)-5-ethyl-4-hydroxy-6-(1-methyl-2-((3-(methylamino)piperidin-1-yl)methyl)-1H-indol-5-yl)-2-oxo-1,2-dihydropyridine-3-carboxylic acid], the MIC against E. coli ELZ4251 was 12.5 to 150 µg/mL (≈ 28.5 to 342 µM); in the assay with E. coli ELZ4000, 12.5 to 150 µg/mL (≈ 28.5 to 342 µM); in assay [1], 12.5 to 150 µg/mL (≈ 28.5 to 342 µM); in assay [2], < 1 µg/mL; in assay [3], 3.5 to 12.5 µg/mL (≈ 7.98 to 28.5 µM); in [4], 12.5 to 150 µg/mL (≈ 28.5 to 342 µM). The MIC in [5] fell in the range of 12.5 to 150 µg/mL (≈ 28.5 to 342 µM); in assay [6] it was 3.5 to 12.5 µg/mL (≈ 7.98 to 28.5 µM); with E. coli LZ3111 it was 3.5 to 12.5 µg/mL (≈ 7.98 to 28.5 µM); in assay [7] it was 3.5 to 12.5 µg/mL (≈ 7.98 to 28.5 µM); in assay [8] it was 1 to 3.5 µg/mL (≈ 2.28 to 7.98 µM); in the assay on E. coli 25922 it was 3.5 to 12.5 µg/mL (≈ 7.98 to 28.5 µM). In addition, the MIC in the assay with K. pneumoniae MXX1232 and in the assay with A. baumannii MXX2240 was 12.5 to 150 µg/mL (≈ 28.5 to 342 µM) throughout.
